The values below come from ChEMBL document CHEMBL1142822, “Analysis of structure-activity relationships for the 'A-region' of N-(4-t-butylbenzyl)-N'-[4-(methylsulfonylamino)benzyl]thiourea analogues as TRPV1 antagonists” (Bioorg Med Chem Lett, 2005).

Molecules are shown by their SMILES.

The target of assay [1] is T1, Transient receptor potential cation channel subfamily V member 1 (Rattus norvegicus, UniProt O35433). The assay can be described thus: In vitro binding affinity for rat TRPV1 expressed in CHO cells using [3H]RTX; Not effective. The assay is classed as cell-based.
T1 sequence (O35433 whole entry): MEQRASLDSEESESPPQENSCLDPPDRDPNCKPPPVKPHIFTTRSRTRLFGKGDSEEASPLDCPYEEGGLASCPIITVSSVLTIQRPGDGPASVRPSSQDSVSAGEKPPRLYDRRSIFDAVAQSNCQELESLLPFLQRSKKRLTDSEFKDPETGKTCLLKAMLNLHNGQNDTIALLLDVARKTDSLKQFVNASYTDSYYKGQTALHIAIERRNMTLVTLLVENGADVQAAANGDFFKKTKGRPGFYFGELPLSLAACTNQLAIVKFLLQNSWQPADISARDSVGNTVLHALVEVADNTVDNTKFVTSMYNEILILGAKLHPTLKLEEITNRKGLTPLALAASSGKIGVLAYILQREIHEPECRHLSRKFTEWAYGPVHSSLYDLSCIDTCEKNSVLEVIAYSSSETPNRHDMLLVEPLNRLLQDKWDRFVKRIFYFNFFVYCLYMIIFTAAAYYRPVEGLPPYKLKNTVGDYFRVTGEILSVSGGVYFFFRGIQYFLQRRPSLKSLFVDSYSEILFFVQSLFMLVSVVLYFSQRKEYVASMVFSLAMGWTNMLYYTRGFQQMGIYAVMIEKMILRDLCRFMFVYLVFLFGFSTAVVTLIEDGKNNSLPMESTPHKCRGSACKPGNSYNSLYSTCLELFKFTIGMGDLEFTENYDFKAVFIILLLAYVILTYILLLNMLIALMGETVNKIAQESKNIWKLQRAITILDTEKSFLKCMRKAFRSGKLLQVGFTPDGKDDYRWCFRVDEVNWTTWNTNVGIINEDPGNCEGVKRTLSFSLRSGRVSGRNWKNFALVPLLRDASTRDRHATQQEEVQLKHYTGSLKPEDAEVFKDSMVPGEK
Assay [2] concerns the target T1, Transient receptor potential cation channel subfamily V member 1. The assay can be described thus: Agonist activity by [Ca2+] uptake in CHO cells expressing rat TRPV1 at 10-30 uM; NE = Not effective. It counts as functional, cell-based.
For assay [3] the target is unchanged. The assay is described as follows: Antagonist activity for rat TRPV1 expressed in CHO cells; Not effective. It counts as functional, cell-based.
Assay [4] has the same target. The assay can be described thus: Antagonist activity for rat TRPV1 expressed in CHO cells. The assay is classed as functional, cell-based.
Assay [5] shares this target. The assay can be described thus: In vitro binding affinity for rat TRPV1 expressed in CHO cells using [3H]-RTX. The assay is classed as cell-based.
Assay [6] shares this target. The assay can be described thus: Agonist activity by 300 nM capsaicin induced [Ca2+] uptake in CHO cells expressing rat TRPV1 at 10-30 uM; WE = Weakly effective. It counts as functional, cell-based.
The target is the same in assay [7]. The assay is described as follows: Agonist activity by [Ca2+] uptake in CHO cells expressing rat TRPV1 at 10-30 uM; WE = Weakly effective. The assay is classed as functional, cell-based.
For assay [8] the target is unchanged. The assay can be described thus: Agonist activity by [Ca2+] uptake in CHO cells expressing rat TRPV1 at 10-30 uM. The assay is classed as functional, cell-based.
Assay [9] shares this target. The assay can be described thus: Antagonist activity for rat TRPV1 expressed in CHO cells; Weakly effective. It counts as functional, cell-based.
For assay [10] the target is unchanged. The assay is described as follows: Agonist activity by 300 nM capsaicin induced [Ca2+] uptake in CHO cells expressing rat TRPV1 at 10-30 uM; NE = Not effective. It counts as functional, cell-based.

Broadly, the Ki is a dissociation constant, usually derived from enzyme kinetics or from competition with a known ligand. A high value points to weaker binding. As usually defined, the EC50 is the concentration needed to bring the measured effect to its halfway point. In the case of `CC(C)(C)c1ccc(C/N=C(\S)NCc2ccc(NS(C)(=O)=O)c(S(C)(=O)=O)c2)cc1`, the Ki entry in assay [1] and in assay [3] was “Not Active” each time. Also, the EC50 result in [2] (cho) was “Not Active”.

`CC(C)(C)c1ccc(C/N=C(\S)NCc2ccc(NS(C)(=O)=O)cc2F)cc1`: the values for the Ki in assay [4] and in assay [5] were 27.3 nM and 215 nM, respectively. In assay [2] (cho), the EC50 result is on record as “Not Active”.

For the compound `CSc1cccc(C/N=C(\S)NCc2ccc(C(C)(C)C)cc2)c1`, the EC50 entry in assay [6] (cho) is listed as “Partial agonist”. Further, the inhibition constant Ki in assay [5] was 580 nM; in assay [3], “Not Active”.

For the compound `CC(C)(C)c1ccc(C/N=C(\S)NCc2cccc(S(C)(=O)=O)c2)cc1`, the EC50 in assay [6] (read-out: EC50) worked out at 1010 nM. Besides, the inhibitory constant (Ki) in [5] was 1000 nM; in assay [3] it was “Not Active”.

Take `CC(C)(C)c1ccc(C/N=C(\S)Nc2ccc(NS(C)(=O)=O)cc2)cc1`: the Ki came to 6800 nM in assay [4] and 9560 nM in [5]. For the same compound, the EC50 entry in assay [7] is listed as “Partial agonist”.

As to `CC(C)(C)c1ccc(C/N=C(\S)NCc2cnc(NS(C)(=O)=O)cn2)cc1`, the inhibitory constant (Ki) result in [1] and in [3] was “Not Active” in each case. For the same compound, the EC50 result in [2] (cho) was “Not Active”.

As for `C=CS(=O)(=O)Nc1ccc(CN/C(S)=N/Cc2ccc(C(C)(C)C)cc2)cc1`, in [8], the EC50 is 250 nM. Also, the Ki was 231 nM in assay [5] and “Not Active” in [3].

On to `CC(C)(C)c1ccc(C/N=C(\S)NCCc2ccc(NS(C)(=O)=O)cc2)cc1`, for which the figures for the Ki in [4] and in assay [5] were 699 nM and 3900 nM, respectively. Besides, the EC50 entry in assay [6] (cho) is recorded as “Partial agonist”.

`Oc1cc2c(cc1O)CN(C(=S)NCCc1ccc(Cl)cc1)CCC2` [CAPSAZEPINE]: the EC50 result in assay [2] (cho) is on record as “Not Active”.

As to `CC(C)(C)c1ccc(C/N=C(\S)NCc2ccc(NS(C)(=O)=O)nc2)cc1`, the values for the Ki in assay [4] and in [5] were 177 nM and 4100 nM, respectively. Further, in assay [2] (cho), the EC50 result was “Not Active”.

On to `CC(C)(C)c1ccc(C/N=C(\S)NCc2ccc(NS(=O)(=O)CCN)cc2)cc1`, for which the EC50 result in [2] (cho) is “Not Active”. In addition, the Ki entry in assay [9] is “Partial antagonist”; in assay [5], 4640 nM.

In the case of `C[S+]([O-])c1cccc(C/N=C(\S)NCc2ccc(C(C)(C)C)cc2)c1` (stereo not drawn), the EC50 in [2] (read-out: EC50) is 1890 nM. Besides, the Ki in [5] was 3600 nM; in assay [3], “Not Active”.

Consider `CC(C)(C)c1ccc(C/N=C(\S)NCc2ccc(NS(C)(=O)=O)cn2)cc1`, for which the inhibition constant (Ki) in assay [4] stood at 4100 nM. Besides, the EC50 entry in assay [2] (cho) was “Not Active”.

Turning to `CC(C)(C)c1ccc(C/N=C(\S)NCc2ccc(NS(N)(=O)=O)cc2)cc1`, the EC50 entry in [7] is given as “Partial agonist”. For the same compound, the Ki result was “Partial antagonist” in assay [9] and 650 nM in assay [5].

As for `CC(C)(C)c1ccc(CNC(=S)NCc2ccc(NS(C)(=O)=O)c(F)c2)cc1`, in assay [2] (cho), the half-maximal effective concentration (EC50) entry is reported as “Not Active”.

With `CC(C)Oc1cc(C/N=C(\S)NCc2ccc(C(C)(C)C)cc2)ccc1NS(C)(=O)=O`, the figures for the Ki in assay [4] and in assay [5] were 3600 nM and 8070 nM, respectively. In addition, in assay [2] (cho), the EC50 result is given as “Not Active”.

Turning to `CC(C)(C)c1ccc(C/N=C(\S)NCc2ccc(NS(C)(=O)=O)c([N+](=O)[O-])c2)cc1`, the Ki in [4] came out at 610 nM; in [5], 1300 nM. In assay [2] (cho), the EC50 result is reported as “Not Active”.

`CC(C)(C)c1ccc(C/N=C(\S)NCc2ccc(NS(C)(=O)=O)cc2C(F)(F)F)cc1`: the Ki in [4] was 119 nM; in assay [5] it was 440 nM. Besides, in [2] (cho), the EC50 entry is given as “Not Active”.

On to `CC(C)(C)c1ccc(C/N=C(\S)NCc2ccc(NS(C)(=O)=O)c(Cl)c2)cc1`, for which the inhibitory constant (Ki) in assay [4] was determined as 400 nM; in assay [5] it was 1160 nM. For the same compound, in [10], the EC50 entry was “Not Active”.

As for `CC(C)(C)c1ccc(C/N=C(\S)NCc2ccc(NS(C)(=O)=O)cc2Cl)cc1`, the Ki in [4] was 45.5 nM; in assay [5], 144 nM. The EC50 result in assay [2] (cho) was “Not Active”.

As for `COc1cc(CNC(=S)NCc2ccc(C(C)(C)C)cc2)ccc1NS(C)(=O)=O`, the EC50 entry in assay [6] (cho) is “Partial agonist”.

As to `CC(C)(C)c1ccc(CNC(=S)NCc2ccc(NS(C)(=O)=O)cc2)cc1`, the EC50 entry in assay [2] (cho) is “Not Active”.

Turning to `CC(C)(C)c1ccc(C/N=C(\S)NCc2ccc(NS(C)(=O)=O)c(O)c2)cc1`, in assay [7], the 50% effective concentration (EC50) result was “Partial agonist”. In addition, the Ki entry is “Partial antagonist” in assay [9] and 750 nM in [5].

`CC(C)(C)c1ccc(C/N=C(\S)NCc2ccc(CNS(C)(=O)=O)cc2)cc1` yielded an EC50 in assay [8] of 1720 nM. In assay [3], the Ki result was “Not Active”.

Take `CC(C)(C)c1ccc(C/N=C(\S)NCc2cccc(NS(C)(=O)=O)c2)cc1`: the concentration for a half-maximal effect (EC50) in [2] (read-out: EC50) amounted to 4100 nM. Moreover, the inhibition constant (Ki) is 6000 nM in assay [5] and “Not Active” in assay [3].

With `CC(C)(C)c1ccc(C/N=C(\S)NCc2ccc(NS(=O)(=O)CCN=[N+]=[N-])cc2)cc1`, the Ki stood at 231 nM in [4] and 145 nM in [5]. Also, in assay [10], the concentration for a half-maximal effect (EC50) entry is “Not Active”.
